# Assay results published in patent US20150322082A1, “NOVEL COMPOUNDS AS DIACYLGLYCEROL ACYLTRANSFERASE INHIBITORS” (GLAXOSMITHKLINE LLC, priority 2012, published 2015).
# Read-outs that look alike come from different tables or passages of the source.
# Assays:
# [1] = molecular target: T1, Human DGAT1 (Homo sapiens, UniProt O75907); experiment: Human DGAT1 lipid extraction (LE) assay, inhibition of triacylglycerol product formation; type: biochemical; conditions: human DGAT1 microsomes from Sf9 cells, read-out: hDGAT LE IC50
# T1 construct: made in house; host or cells: Sf9 insect cells (baculovirus); microsomes
# T1 sequence (O75907 1-488): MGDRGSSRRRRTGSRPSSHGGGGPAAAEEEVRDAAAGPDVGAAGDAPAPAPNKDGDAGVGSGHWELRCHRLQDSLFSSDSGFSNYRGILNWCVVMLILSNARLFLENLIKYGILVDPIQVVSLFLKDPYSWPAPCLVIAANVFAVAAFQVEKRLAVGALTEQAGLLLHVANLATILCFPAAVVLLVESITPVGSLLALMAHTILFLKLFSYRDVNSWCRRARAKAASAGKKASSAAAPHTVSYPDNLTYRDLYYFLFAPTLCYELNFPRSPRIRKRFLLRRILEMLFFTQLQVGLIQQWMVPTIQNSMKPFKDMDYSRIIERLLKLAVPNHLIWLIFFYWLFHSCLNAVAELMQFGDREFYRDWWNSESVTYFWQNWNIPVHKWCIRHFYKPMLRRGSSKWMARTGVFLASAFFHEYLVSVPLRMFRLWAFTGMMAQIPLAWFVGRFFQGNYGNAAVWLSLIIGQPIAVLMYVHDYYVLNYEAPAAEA
# Method: Human DGAT1 was expressed in Sf9 insect cells using a baculovirus expression system. Microsomes were prepared and used as enzyme for in vitro inhibition testing in either of two formats measuring production of coenzyme A or tridecanoylglycerol product, respectively. All steps were performed at 21-23° C. All data for DGAT1 inhibition by test compounds were collected under conditions where product formation was linear with reaction time.
# Some assays were performed with inclusion of didecanoylglycerol in the pre-reaction incubation of test compounds and enzyme. […] Extraction of tridecanoylglycerol product was accomplished via addition of 30 uL Microscint-E (Perkin Elmer) and 2 hours of incubation (sealed). Plates were read on a Microbeta Microplate reader. Inhibition was normalized to controls containing DMSO or 10 uM {4-[4-(4-amino-7,7-dimethyl-7H-pyrimido[4,5-b][1,4]oxazin-6-yl)phenyl]cyclohexyl}acetic acid. IC50s were fitted using GraphPad Prism to a sigmoidal dose response.
# [2] = Pharmacokinetic assay in rats (Rat IV and PO PK); type: in vivo; conditions: male, Crl:CD (SD), plasma; for bioavailability: 2 mg/kg, absolute oral bioavailability from oral and intravenous AUC0-inf, normalized for dose, read-out: Rat % F
# Method: Pharmacokinetic Assay in Rats (Rat IV and PO PK)
# Male Crl:CD (SD) rats were housed individually in cages with clean bedding in a controlled environment (22 to 25° C. temperature, humidity of 30-70% RH, and a 12 hour light/12 hour dark cycle). Certified rodent diet was provided ad libitum to the rats. Rats were fasted overnight 14-16 hours prior to the dosing on each study day and fed approximately 4 hours post dose (following collection of the 4 hour blood sample). Water was available ad libitum. Normal healthy rats certified by the attending veterinarian were selected and acclimatized for a minimum of three days prior to initiation of the study. Rats were randomized according to the body weight and were identified with body markings.
# Intravenous formulation of 1 mg/mL concentration was prepared in DMA (N,N-Dimethylacetamide):TEG (Tetraethylene glycol): Water for Injection (20:40:40) freshly on study day. Animals were dosed through tail vein to achieve a target dose of 1 mg/kg. Oral suspension at a target concentration of 2 mg/mL was prepared freshly in Tween 80 (2%) and 0.5% MC (Methylcellulose) (2:98) on the study day. Animals in the intravenous dosing group were dosed through tail vein to achieve a target dose of 1 mg/kg, and the animals in oral dosing group were dosed orally by an oral gavage needle to achieve a target dose of 2 mg/kg. The actual dose volume was based on the body weight obtained on the study day. On the study day, blood samples (approx. 300 μL/time point) were collected at 0.083, 0.25, 0.5, 1, 2, 4, 8 and 24 hours after intravenous bolus dose, and 0.25, 0.5, 1, 2, 4, 8 and 24 hours after dosing of oral gavage and transferred to a pre-labeled K2EDTA coated tubes. Blood volume was replaced with administration of equal volume of saline through the jugular vein. After collection of blood samples at each time point, the blood samples were stored immediately on ice, in chilled Cryoracks and centrifuged at 2320 g at 4° C. for 15 minutes. The plasma was separated and transferred to pre-labeled micro-centrifuge tubes and promptly frozen at −80+10° C. until bioanalysis.
# The plasma concentrations were determined by using a fit for purpose analytical method based on protein precipitation, followed by LC-MS/MS analysis. Analyst Version 1.5.1 software was used to acquire and quantify data. Pharmacokinetic analysis of plasma concentration-time data was performed by a non-compartmental method using Pheonix WinNonLin™ (WLN) Version 6.3.
# The area under the plasma concentration-time curve (AUC) from the time of dosing to the last quantifiable time point (AUC0-1) was determined by WLN using linear logarithmic trapezoidal rule. Terminal half life (T1/2) was determined by WLN using linear logarithmic trapezoidal rule for plasma concentrations following intravenous administration. The Absolute oral bioavailability (% F) was calculated by mathematical comparison of oral and intravenous AUC0-inf, normalized for dose.
# [3] = intravenous (tail vein), target dose 1 mg/kg, read-out: Rat IV AUC
# [4] = oral gavage, target dose 2 mg/kg, read-out: Rat PO AUC
IC50 [1] [nM],"AUC [2, 3] [ng·h/mL]","AUC [2, 4] [ng·h/mL]",bioavailability [2] [%],SMILES
11.7,11700,11600,54.6,"Cc1cnc(-n2ccc3cc(N4CCOc5ncnc(N)c5C4=O)cc(C4CC4)c32)nc1 [Example 37, 4-Amino-6-(7-cyclopropyl-1-(5-methylpyrimidin-2-yl)-1H-indol-5-yl)-7,8-dihydropyrimido[5,4-f][1,4]oxazepin-5(6H)-one]"
29,2140,4020,89,"CC(C)(O)c1ccc(-n2ccc3cc(N4CCOc5ncnc(N)c5C4=O)ccc32)cn1 [Example 38, 4-Amino-6-(1-(6-(2-hydroxypropan-2-yl)pyridin-3-yl)-1H-indol-5-yl)-7,8-dihydropyrimido[5,4-f][1,4]oxazepin-5(6H)-one]"
42.3,,,,"COC(C)(C)Cn1ccc2cc(N3CCOc4ncnc(N)c4C3=O)ccc21 [Example 39, 4-amino-6-(1-(2-methoxy-2-methylpropyl)-1H-indol-5-yl)-7,8-dihydropyrimido[5,4-f][1,4]oxazepin-5(6H)-one]"
7.5,,,,"CC(C)(O)Cn1ccc2cc(N3CCOc4ncnc(N)c4C3=O)cc(C3CC3)c21 [Example 40, 4-amino-6-(7-cyclopropyl-1-(2-hydroxy-2-methylpropyl)-1H-indol-5-yl)-7,8-dihydropyrimido[5,4-f][1,4]oxazepin-5(6H)-one]"
23.8,,,,CCOc1ncc(-n2ccc3cc(N4CCOc5ncnc(N)c5C4=O)ccc32)cn1 [Example 41]
,3380,3860,30.4,"Nc1ncnc2c1C(=O)N(c1ccc3c(ccn3-c3ccc(C(F)(F)F)nc3)c1)CCO2 [WO12/162129, Ex 83, 4-amino-6-(1-(6-(trifluoromethyl)pyridin-3-yl)-1H-indol-5-yl)-7,8-dihydropyrimido[5,4-f][1,4]oxazepin-5(6H)-one]"
,3780,1780,12.5,"Nc1ncnc2c1C(=O)N(c1ccc3c(ccn3-c3ccc(C(F)(F)F)cn3)c1)CCO2 [WO12/162129, Ex 88, 4-amino-6-(1-(5-(trifluoromethyl)pyridin-2-yl)-1H-indol-5-yl)-7,8-dihydropyrimido[5,4-f][1,4]oxazepin-5(6H)-one]"
,975,2490,65.6,"Cc1ccc(-n2ccc3cc(N4CCOc5ncnc(N)c5C4=O)ccc32)cn1 [WO12/162129, Ex 102, 4-amino-6-(1-(6-methylpyridin-3-yl)-1H-indol-5-yl)-7,8-dihydropyrimido[5,4-f][1,4]oxazepin-5(6H)-one]"
